Experimental data reported in ChEMBL document CHEMBL4303084, “Identification of antiviral drug candidates against SARS-CoV-2 from FDA-approved drugs” (2020).
Starred links: 1 amine or outer side, 2 acyl side, 3 side chain; linkers in the order of their positions; H or OH if unused. Positions of bridges follow the written chain, without caps; N, C: chain ends. Non-standard residues stand in square brackets, D forms with d. Residues, ends and D or L forms follow the SMILES beside them. *: point of attachment. pTerphenylCO(4''-OnC5H11) = CCCCCOc1ccc(-c2ccc(-c3ccc(C(=O)*)cc3)cc2)cc1; Orn(4R-OH,5R-OH) = O=C([C@H](C[C@@H](O)[C@@H](O)N[*:3])N[*:1])[*:2]; hTyr(3S-OH,4S-OH) = N[C@H](C(=O)O)[C@H](O)[C@@H](O)c1ccc(O)cc1; Pro(3S-OH,4S-Me) = C[C@H]1CN[C@H](C(=O)O)[C@H]1O; Hyp = O=C(O)[C@@H]1C[C@@H](O)CN1

How the values were obtained:
[1] = Cell viability measured by CellTiter-Glo assay in Vero cells at MOI 0.05 after 72hr; conditions: chlorocebus sabaeus
SARS-CoV-2 = assay: microbe, parasite or virus in culture; type: functional, organism-based, Chlorocebus sabaeus; conditions: Severe acute respiratory syndrome coronavirus 2, Vero, 24 h
[2] = Selectivity index for antiviral vs cytotoxic activity in Vero cells (CC50/IC50); conditions: monkey, Vero cells

Structure (SMILES) | CC50 at 72 h ([1]; Vero cells) | IC50 (SARS-CoV-2) | selectivity ratio [2] | CC50 at 72 h ([1]; vero)
CC1(C)C=Cc2c(c3c(c4c(=O)c(-c5ccc(O)cc5)coc24)OC(C)(C)CC3)O1 | 9.89 µM | 3.22 µM | 3.07 | 
CCC(CC)COC(=O)[C@H](C)N[P@](=O)(OC[C@H]1O[C@@](C#N)(c2ccc3c(N)ncnn23)[C@H](O)[C@@H]1O)Oc1ccccc1 | > 25 µM |  |  | 
CCN1CCN(Cc2ccc(Nc3ncc(F)c(-c4cc(F)c5nc(C)n(C(C)C)c5c4)n3)nc2)CC1 [ABEMACICLIB] | > 50 µM | 6.62 µM |  | 
CCN(CC)Cc1cc(Nc2ccnc3cc(Cl)ccc23)ccc1O [AMODIAQUINE] | > 50 µM | 5.15 µM |  | 
CCCCCOc1ccc(-c2ccc(-c3ccc(C(=O)N[C@H]4C[C@@H](O)[C@@H](O)NC(=O)[C@@H]5[C@@H](O)[C@@H](C)CN5C(=O)[C@H]([C@@H](C)O)NC(=O)[C@H]([C@H](O)[C@@H](O)c5ccc(O)cc5)NC(=O)[C@@H]5C[C@@H](O)CN5C(=O)[C@H]([C@@H](C)O)NC4=O)cc3)cc2)cc1 [ANIDULAFUNGIN] ({pTerphenylCO(4''-OnC5H11)}-[Orn(4R-OH,5R-OH)]T[Hyp][hTyr(3S-OH,4S-OH)]T[Pro(3S-OH,4S-Me)]; lactam 1-C) | > 50 µM | 4.64 µM | 10.8 | 
Cc1c(-c2ccc(O)cc2)n(Cc2ccc(OCCN3CCCCCC3)cc2)c2ccc(O)cc12 [BAZEDOXIFENE] | 15 µM |  |  | 
COc1cc2c3cc1Oc1c(OC)c(OC)cc4c1[C@@H](Cc1ccc(O)c(c1)Oc1ccc(cc1)C[C@@H]3N(C)CC2)N(C)CC4 [BERBAMINE] | > 50 µM | 7.87 µM | 6.35 | 
CN(C)C(=O)COC(=O)Cc1ccc(OC(=O)c2ccc(NC(=N)N)cc2)cc1 [CAMOSTAT] | > 50 µM | > 50 µM |  | 
COc1ccc2cc1Oc1ccc(cc1)C[C@H]1c3c(cc4c(c3Oc3cc5c(cc3OC)CCN(C)[C@@H]5C2)OCO4)CCN1C [CEPHARANTHINE] | > 50 µM | 4.47 µM | 11.2 | 
Cc1cc(Nc2ncc(Cl)c(Nc3ccccc3S(=O)(=O)C(C)C)n2)c(OC(C)C)cc1C1CCNCC1 [CERITINIB] | 6.84 µM | 2.86 µM | 2.39 | 
CCN(CC)CCCC(C)Nc1ccnc2cc(Cl)ccc12 (stereo unspecified) [CHLOROQUINE] | > 150 µM |  |  | 
CC(C)C(=O)OCC(=O)[C@@]12O[C@H](C3CCCCC3)O[C@@H]1C[C@H]1[C@@H]3CCC4=CC(=O)C=C[C@]4(C)[C@H]3[C@@H](O)C[C@@]12C [CICLESONIDE] | > 50 µM | 4.33 µM | 11.6 | 
CCN(CC)CCOc1ccc(C(=C(Cl)c2ccccc2)c2ccccc2)cc1 [CLOMIPHENE] | 15 µM | 5.36 µM | 2.8 | 
C[C@H]1O[C@@H](O[C@H]2[C@@H](O)C[C@H](O[C@H]3[C@@H](O)C[C@H](O[C@H]4CC[C@@]5(C)[C@H](CC[C@@H]6[C@@H]5CC[C@]5(C)[C@@H](C7=CC(=O)OC7)CC[C@]65O)C4)O[C@@H]3C)O[C@@H]2C)C[C@H](O)[C@@H]1O [DIGITOXIN] | > 50 µM | < 0.23 µM | 214 | 
C[C@H]1O[C@@H](O[C@H]2[C@@H](O)C[C@H](O[C@H]3[C@@H](O)C[C@H](O[C@H]4CC[C@@]5(C)[C@H](CC[C@@H]6[C@@H]5C[C@@H](O)[C@]5(C)[C@@H](C7=CC(=O)OC7)CC[C@]65O)C4)O[C@@H]3C)O[C@@H]2C)C[C@H](O)[C@@H]1O [DIGOXIN] | > 50 µM | 0.19 µM | 257 | 
CC(C)=CCCC1(C)C=Cc2c(O)c3c(c(CC=C(C)C)c2O1)OC12C(=CC4CC1C(C)(C)OC2(C/C=C(/C)C(=O)O)C4O)C3=O (stereo unspecified) [DIHYDROGAMBOGIC ACID] | 9.85 µM | 13.4 µM | 0.74 | 
CC/C(=C(/c1ccc(OCCN(C)C)cc1)c1cccc(O)c1)c1ccccc1 [DROLOXIFENE] | 15.8 µM | 6.6 µM | 2.4 | 
CCCCc1oc2ccc(NS(C)(=O)=O)cc2c1C(=O)c1ccc(OCCCN(CCCC)CCCC)cc1 [DRONEDARONE] | 8.75 µM | 3.92 µM | 2.23 | 
CC(C)(C)c1ccc(C(=O)CCCN2CCC(OC(c3ccccc3)c3ccccc3)CC2)cc1 [EBASTINE] |  |  |  | 15.4 µM
CC1=NN(c2ccc(C)c(C)c2)C(=O)/C1=N\Nc1cccc(-c2cccc(C(=O)O)c2)c1O [ELTROMBOPAG] | > 50 µM | 8.27 µM |  | 

Structure (SMILES) | CC50 at 72 h ([1]; Vero cells) | IC50 (SARS-CoV-2) | selectivity ratio [2] | CC50 at 72 h ([1]; vero)
COc1ccc2cc1Oc1ccc(cc1)C[C@H]1c3cc(c(OC)cc3CCN1C)Oc1c(OC)c(OC)cc3c1[C@H](C2)N(C)CC3 [FANCHININ] | 14.9 µM | 3 µM | 4.97 | 
CCc1nc(C(N)=O)c(Nc2ccc(N3CCC(N4CCN(C)CC4)CC3)c(OC)c2)nc1NC1CCOCC1 [GILTERITINIB] | 37.2 µM | 6.76 µM | 5.5 | 
Oc1c(Cl)cc(Cl)c(Cl)c1Cc1c(O)c(Cl)cc(Cl)c1Cl [HEXACHLOROPHENE] | 19.3 µM | 0.9 µM | 21.6 | 
CCCCCC(=O)O[C@]1(C(C)=O)CC[C@H]2[C@@H]3CCC4=CC(=O)CC[C@]4(C)[C@H]3CC[C@@]21C [HYDROXYPROGESTERONE CAPROATE] | > 50 µM | 6.3 µM | 7.93 | 
CC(C)(C)c1cc(C(C)(C)C)c(NC(=O)c2c[nH]c3ccccc3c2=O)cc1O [IVACAFTOR] | 27.3 µM | 6.57 µM | 3.76 | 
CC(=O)O[C@H]1C[C@H](O[C@H]2[C@@H](O)C[C@H](O[C@H]3[C@@H](O)C[C@H](O[C@H]4CC[C@@]5(C)[C@H](CC[C@@H]6[C@@H]5C[C@@H](O)[C@]5(C)[C@@H](C7=CC(=O)OC7)CC[C@]65O)C4)O[C@@H]3C)O[C@@H]2C)O[C@H](C)[C@H]1O[C@@H]1O[C@H](CO)[C@@H](O)[C@H](O)[C@H]1O [LANATOSIDE C] | > 50 µM | > 50 µM | 1 | 
CN(C)C(=O)C(CCN1CCC(O)(c2ccc(Cl)cc2)CC1)(c1ccccc1)c1ccccc1 [LOPERAMIDE] | 29.3 µM |  |  | 
Cc1cccc(C)c1OCC(=O)N[C@@H](Cc1ccccc1)[C@@H](O)C[C@H](Cc1ccccc1)NC(=O)[C@H](C(C)C)N1CCCNC1=O [LOPINAVIR] | > 50 µM | 9.12 µM |  | 
CCCCCCO[C@@H](C)c1cccc(-c2csc(NC(=O)c3cc(Cl)c(/C=C(\C)C(=O)O)c(Cl)c3)n2)c1OC [LUSUTROMBOPAG] | 14.6 µM | 3.78 µM | 3.87 | 
OC(c1cc(C(F)(F)F)nc2c(C(F)(F)F)cccc12)C1CCCCN1 (stereo unspecified) [MEFLOQUINE] | 14 µM | 4.33 µM | 3.22 | 
c1ccc2c(c1)Sc1ccccc1N2CC1CN2CCC1CC2 (stereo unspecified) [MEQUITAZINE] | 27.3 µM | 7.28 µM | 3.76 | 
O=C(Nc1ccc([N+](=O)[O-])cc1Cl)c1cc(Cl)ccc1O [NICLOSAMIDE] | > 50 µM |  |  | 
CC(C)=CCc1c2c(c3occ(-c4ccc(O)cc4)c(=O)c3c1O)C=CC(C)(C)O2 [OSAJIN] | 11.4 µM | 3.87 µM | 2.95 | 
C=CC(=O)Nc1cc(Nc2nccc(-c3cn(C)c4ccccc34)n2)c(OC)cc1N(C)CCN(C)C [OSIMERTINIB] | 13.2 µM | 3.26 µM | 4.05 | 
C[C@@H]1O[C@@H](O[C@H]2C[C@@H](O)[C@]3(CO)[C@H]4[C@H](O)C[C@]5(C)[C@@H](C6=CC(=O)OC6)CC[C@]5(O)[C@@H]4CC[C@]3(O)C2)[C@H](O)[C@H](O)[C@H]1O [OUABAIN OCTAHYDRATE] | > 50 µM | < 0.097 µM | 516 | 
O=C(Nc1cc(Cl)cc(Cl)c1O)c1c(O)c(Cl)cc(Cl)c1Cl [OXYCLOZANIDE] | > 50 µM | 3.71 µM |  | 
OC1(c2ccc(Cl)c(C(F)(F)F)c2)CCN(CCCC(c2ccc(F)cc2)c2ccc(F)cc2)CC1 [PENFLURIDOL] | 8.77 µM | 5.01 µM | 1.75 | 
C1CCC(C(CC2CCCCN2)C2CCCCC2)CC1 (stereo unspecified) [PERHEXILINE] | 8.67 µM | 6.38 µM | 1.36 | 
Nc1ccc(/N=N/c2ccccc2)c(N)n1 [PHENAZOPYRIDINE] | > 50 µM | 28 µM |  | 
C[C@@H]1O[C@@H](O[C@@H]2C=C3CC[C@@H]4[C@H](CC[C@]5(C)[C@@H](c6ccc(=O)oc6)CC[C@]45O)[C@@]3(C)CC2)[C@H](O)[C@H](O)[C@H]1O [PROSCILLARIDIN] | > 50 µM | 2.04 µM | 24.5 | 
